The values that follow come from patent publication US10947241B2, “Phenyl phthalazine derivative, method for the preparation thereof, and pharmaceutical composition comprising the same” (Seoul National University Hospital, priority 2016, dated 2021).

Where a name gives a salt, the structure may show the parent alone.

This assay concerns the target hResistin (Homo sapiens (Human), UniProt Q9HD89). As to the kind of experiment: Evaluation of the ability to inhibit TNF-α secretion by hResistin (THP-1 cells, ELISA). It counts as cell-based. Particulars: for inhibition at 5 µM: inhibition of TNF-α secretion by hResistin in THP-1 cells; for IC50: THP-1 human monocyte cell line, human recombinant Resistin. The procedure:
Experimental Example: Evaluation of the Ability to Inhibit TNF-α Secretion by hResistin
Using THP-1 (human monocyte) cell line and ELISA system, the abilities to inhibit TNF-α secretion by hResistin (IC50) were evaluated for the compounds prepared in the above examples. The compounds target hResistin, and the abilities of the compounds to inhibit TNF-α secretion by human recombinant Resistin in human monocyte (THP-1) were evaluated. The abilities to inhibit TNF-α secretion were assessed by ELISA quantifying the amount of antibody with the enzyme as a marker using an antigen-antibody reaction.
Specifically, the cultured cells were spun down at 1,500 rpm for 2 minutes, the supernatant was removed and then the cells were re-suspended in 10 mL of complete RPMI-1640 medium. After counting the number of cells using Luna™ Automated Cell Counter, cells were plated into 96-well assay plates at 50 μL per well. The cells cultured for 24 hours were treated with the test substances in accordance with the concentration for 1 hour, and then the supernatant was collected and subjected to ELISA assay. In the ELISA assay, the absorbance at 450 nm (OD450 nm) was measured using Flexstation 3. The ability of each test substance to inhibit TNF-α secretion (IC50) and its inhibition at a concentration of 5 uM are shown in Table 1 below.

hResistin, sequence (Q9HD89 19-108): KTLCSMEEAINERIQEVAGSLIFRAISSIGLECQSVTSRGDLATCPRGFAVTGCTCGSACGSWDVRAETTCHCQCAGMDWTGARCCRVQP

`CC(C)[C@H](N)C(=O)N1CCN(c2nnc(-c3ccc(Cl)cc3)c3ccccc23)CC1(C)C` [Example 69, (S)-2-amino-1-(4-(4-(4-chlorophenyl)phthalazin-1-yl)-2,2-dimethylpiperazin-1-yl)-3-methylbutan-1-one hydrochloride]: testing at 5 µM gave an inhibition of 16.1%. Turning to `COCCN1CCN(c2nnc(-c3ccc(Cl)cc3)c3ccccc23)CC1` [Example 9, 1-(4-chlorophenyl)-4-(4-(2-methoxyethyl)piperazin-1-yl)phthalazine], the 50% inhibitory concentration (IC50) – broadly, the point on the concentration scale where inhibition reaches its midpoint – turned out to be 3.7 µM.

With `O=C(C1CC1)N1CCC(c2nnc(-c3ccc(Cl)cc3)c3ccccc23)CC1` [Example 56, (4-(4-(4-chlorophenyl)phthalazin-1-yl)piperidin-1-yl)(cyclopropyl)methanone], at 5 µM the inhibition was 26.2%. Still for that read-out and setting: with `C[C@@H]1CN(c2nnc(-c3ccc(Cl)cc3)c3ccccc23)CCN1C(=O)C(C)(C)N` [Example 70, (R)-2-amino-1-(4-(4-(4-chlorophenyl)phthalazin-1-yl)-2-methylpiperazin-1-yl)-2-methylpropan-1-one hydrochloride] the figure was 61.4%. As for `CNC1CCN(c2nnc(Oc3ccc(Cl)cc3)c3ccccc23)C1` (centres unmarked) [Example 93, 1-(4-(4-chlorophenoxy)phthalazin-1-yl)-N-methylpyrrolidin-3-amine hydrochloride], the inhibition (commonly the drop in the measured response relative to a control, in per cent) at 5 µM is 67.6% and the IC50 is 1.9 µM. In turn, `CNC1CCN(c2nnc(Nc3ccc(Cl)cc3)c3ccccc23)C1` (centres unmarked) [Example 97, N-(4-chlorophenyl)-4-(3-(methylamino)pyrrolidin-1-yl)phthalazin-1-amine] came in with an inhibition at 5 µM of 26.9%. `N[C@@H](Cc1c[nH]cn1)C(=O)N1CCN(c2nnc(-c3ccc(Cl)cc3)c3ccccc23)CC1` [Example 76, (S)-2-amino-1-(4-(4-(4-chlorophenyl)phthalazin-1-yl)piperazin-1-yl)-3-(1H-imidazol-4-yl)propan-1-one dihydrochloride] had an inhibition at 5 µM of 28.9%. Turning to `CC(=O)N1CCN(c2nnc(-c3ccc(C)cc3)c3ccccc23)CC1` [Example 2, 1-(4-(4-p-tolylphthalazin-1-yl)piperazin-1-yl)ethanone], the IC50 stood at 5 µM.

Regarding `NC(=O)CC(N)C(=O)N1CCN(c2nnc(-c3ccc(Cl)cc3)c3ccccc23)CC1` (centres unmarked) [Example 85, 3-amino-4-(4-(4-(4-chlorophenyl)phthalazin-1-yl)piperazin-1-yl)-4-oxobutanamide hydrochloride], 5 µM produced 45.3% inhibition and the IC50 was found to be 5.4 µM. As to `NC(CCC(=O)O)C(=O)N1CCN(c2nnc(-c3ccc(Cl)cc3)c3ccccc23)CC1` (centres unmarked) [Example 86, 4-amino-5-(4-(4-(4-chlorophenyl)phthalazin-1-yl)piperazin-1-yl)-5-oxopentanoic acid hydrochloride], the IC50 was 18 µM. In turn, `CC[C@H](C)[C@H](N)C(=O)N1CCC(c2nnc(-c3ccc(Cl)cc3)c3ccccc23)CC1` [Example 63, (2S,3S)-2-amino-1-(4-(4-(4-chlorophenyl)phthalazin-1-yl)piperidin-1-yl)-3-methylpentan-1-one hydrochloride] returned an inhibition at 5 µM of 53.6%. On to `CNC1CCN(c2nnc(-c3ccc(Cl)cc3)c3cc(F)ccc23)C1` (centres unmarked) [Example 91, 1-(4-(4-chlorophenyl)-6-fluorophthalazin-1-yl)-N-methylpyrrolidin-3-amine hydrochloride], for which the inhibition at 5 µM came out at 76.6% and the IC50 turned out to be 0.6 µM.

With `O=C(C1CC1)N1CCN(c2nnc(-c3ccc(Cl)cc3)c3ccccc23)CC1` [Example 10, (4-(4-(4-chlorophenyl)phthalazin-1-yl)piperazin-1-yl)(cyclopropyl)methanone], the IC50 came out at 1.2 µM. With `CNC1CCN(c2nnc(-c3ccc(Cl)cc3)c3ccccc23)C1` (centres unmarked) [Example 46, 1-(4-(4-chlorophenyl)phthalazin-1-yl)-N-methylpyrrolidin-3-amine hydrochloride], the inhibition at 5 µM came out at 97.8% and the concentration for half-maximal inhibition (IC50) came out at 0.3 µM.

Consider `CC[C@H](C)[C@H](N)C(=O)N1CCN(c2nnc(-c3ccc(Cl)cc3)c3ccccc23)CC1` [Example 60, (2S,3S)-2-amino-1-(4-(4-(4-chlorophenyl)phthalazin-1-yl)piperazin-1-yl)-3-methylpentan-1-one hydrochloride], for which at 5 µM the inhibition was 91.2% and the IC50 came out at 1.9 µM. The like results for `CN[C@@H]1CCCN(c2nnc(-c3ccc(Cl)cc3)c3ccccc23)C1` [Example 57, (R)-1-(4-(4-chlorophenyl)phthalazin-1-yl)-N-methylpiperidin-3-amine hydrochloride] were, in that order, 92.8% and 1 µM. In the case of `Clc1ccc(-c2nnc(N3CCC(N4CCOCC4)CC3)c3ccccc23)cc1` [Example 8, 4-(1-(4-(4-chlorophenyl)phthalazin-1-yl)piperidin-4-yl)morpholine], at 5 µM the inhibition was 54.4%. The compound `CC(C)(N)C(=O)N1CCC(c2nnc(-c3ccc(Cl)cc3)c3ccccc23)CC1` [Example 64, 2-amino-1-(4-(4-(4-chlorophenyl)phthalazin-1-yl)piperidin-1-yl)-2-methylpropan-1-one hydrochloride] yielded an inhibition at 5 µM of 23.9%.

On to `Clc1ccc(-c2nnc(O[C@H]3CCNC3)c3ccccc23)cc1` [Example 95, (S)-1-(4-chlorophenyl)-4-(pyrrolidin-3-yloxy)phthalazine hydrochloride], for which testing at 5 µM gave an inhibition of 64% and the IC50 was 2.3 µM. As for `OCCN1CCN(c2nnc(-c3ccccc3)c3ccccc23)CC1` [Example 1, 2-(4-(4-phenylphthalazin-1-yl)piperazin-1-yl)ethanol], the IC50 was 1 µM. `CC(C)(C(=O)O)N1CCN(c2nnc(-c3ccc(Cl)cc3)c3ccccc23)CC1` [Example 82, 2-(4-(4-(4-chlorophenyl)phthalazin-1-yl)piperazin-1-yl)-2-methylpropanoic acid] gave an inhibition at 5 µM of 50%. For the compound `Clc1ccc(-c2nnc(OC3CCCNC3)c3ccccc23)cc1` (centres unmarked) [Example 96, 1-(4-chlorophenyl)-4-(piperidin-3-yloxy)phthalazine hydrochloride], the inhibition at 5 µM came to 58.9%. In the case of `CC(C)[C@H](N)C(=O)N1CCN(c2nnc(-c3ccc(Cl)cc3)c3ccccc23)[C@@H](C)C1` [Example 75, (S)-2-amino-1-((S)-4-(4-(4-chlorophenyl)phthalazin-1-yl)-3-methylpiperazin-1-yl)-3-methylbutan-1-one hydrochloride], the inhibition at 5 µM turned out to be 30.9%. On to `NCCN1CCN(c2nnc(-c3ccc(Cl)cc3)c3ccccc23)CC1` [Example 38, 2-(4-(4-(4-chlorophenyl)phthalazin-1-yl)piperazin-1-yl)ethanamine hydrochloride], for which the inhibition at 5 µM stood at 69.5% and the IC50 was 7.9 µM.

In the case of `CNC1CCN(c2nnc(-c3ccc(Cl)cc3)c3cc(Cl)ccc23)C1` (centres unmarked) [Example 90, 1-(6-chloro-4-(4-chlorophenyl)phthalazin-1-yl)-N-methylpyrrolidin-3-amine hydrochloride], at 5 µM the inhibition was 86.7% and the IC50 worked out at 0.9 µM. In turn, `CC(C)(N)C(=O)N1CCN(c2nnc(-c3ccc(OC(F)(F)F)cc3)c3ccccc23)CC1` [Example 103, 2-amino-2-methyl-1-(4-(4-(4-(trifluoromethoxy)phenyl)phthalazin-1-yl)piperazin-1-yl)propan-1-one hydrochloride] gave an inhibition at 5 µM of 32%.
